What was measured:
[1] = tested on: monocytes; assay: Monocyte migration in response to MIP-1β after pretreatment; type: cell-based, human; conditions: fMLP 10^−6 M, 37° C.
Procedure: Monocyte migration was assessed by a 48-well micro-chemotaxis chamber technique. 25 μl MIP-1β diluted in assay medium (RPMI 1640 with 1% BSA and 25 mM Hepes) was placed in the lower compartment of the chemotaxis chamber. 50 μl cell suspension (1×10^6 cell/ml) was placed in the upper compartment of the chamber. The upper and lower compartments were separated by a polycarbonate filter (5 μm pore-size, Neuroprobe, Cabin John, Md.). The chamber was incubated at 37° C. for 90 min in humidified air with 5% CO2. At the end of the incubation, the filter was removed, fixed and stained with Diff-Quik (Harlew, Gibbstown, N.J.). The migrated cells in three high-powered fields (HPF) obtained in triplicates (400×) were counted by light microscopy after coding the samples. The results are expressed as the net mean (±SD) number of migrated cells in 3 HPF after subtraction of spontaneous migration. At least three experiments were performed with same results.

[2] = tested on: macrophages; conditions: compared to cells treated with medium alone
[3] = tested on: HIVJRFL; type: cell-based, HIV-1; conditions: peripheral blood monocyte/macrophages
[4] = tested on: HIV-1BAL-env; type: cell-based; conditions: HOS/CD4/CCR5 cells co-expressing FPR
[5] = tested on: CCR5; assay: 125I-MIP-1β binding to monocytes; design: species or system human
Procedure: Rocky Hill, N.J.). After incubation, the cells were washed with DPBS and centrifuged through a 10% sucrose/DPBS cushion. The tips of tubes containing cell pellets were cut and the cell-associated radioactivity was determined in a gamma counter. The results were presented as counts per minute (cpm) on 2×10^6 monocyte and were representative of at least three experiments performed.

[6] = tested on: parental or mock transfected cells; assay: Ca2+ mobilization in parental or mock transfected rat basophil cell line and HEK 293 cells; type: cell-based
[7] = tested on: CCR5; assay: Surface expression of CCR5 on monocytes by flow cytometry; type: cell-based, human; conditions: FITC-anti-CCR5 2D7
Procedure: The change of surface expression of CCR5 on monocytes was monitored by FACS analyses (courtesy of L. […] The cells were then washed twice with DPBS containing 2% BSA and fixed with 1% Paraformaldehyde (Sigma). The fluorescence was measured by flow cytometer (Becton Dickinson, San Jose, Calif.). Results are presented as the percentage of cells stained with anti-CCR5 antibody.

[8] = tested on: monocyte tropic strains of HIV-1; type: cell-based; conditions: FPR-transfected HOS cells
[9] = tested on: CCR5; type: cell-based, human; conditions: HOS/CD4/CCR5 cells co-expressing FPR
[10] = tested on: monocytes; assay: Ca2+ mobilization of monocytes in response to chemokines after preincubation (heterologous desensitization); type: cell-based, human; conditions: 60 min, 37° C.
Procedure: Calcium mobilization was measured by incubating monocytes (2×10^7/ml) in loading medium (DMEM, 10% FCS) with 5 μM Fura-2 AM (Molecular Probes, Eugene, Oreg.) for 30 min at room temperature in the dark. The dye-loaded cells were washed 3 times and resuspended in saline buffer (138 mM NaCl, 6 mM KCl, 1 mM CaCl2, 10 mM Hepes pH 7.4, 5 mM glucose, 0.1% BSA). The cells were then transferred into quartz cuvettes (2×10^6 cells in 2 ml) which were placed in a luminescence spectrometer (LS-50B, Perkin-Elmer, Beaconsfield, UK). Stimulants at different concentrations were added in a volume of 20 μl to each cuvette at the indicated time points. The ratio of fluorescence at 340 and 380 nm was calculated using a FL-WinLab program (Perkin Elmer). To examine the effect of fMLP, monocytes were preincubated with 10^−6 M fMLP or with medium alone for 60 min at 37° C. The cells were thoroughly washed and then were stained with Fura-2 for the calcium mobilization desensitization. The results are representative of at least three experiments performed.
Calcium mobilization was measured by incubating 2×10^7/ml cells in loading medium (DMEM, 10% FBS) with 5 μM Fura-2 AM (Molecular Probes, Eugene, Oreg.) for 30 min at room temperature in the dark. The dye-loaded cells were washed 3 times with loading medium and resuspended in saline buffer [138 mM NaCl, 6 mM KCl, 1 mM CaCl2, 10 mM HEPES (pH 7.4), 5 mM Glucose, 0.1% BSA] at a concentration of 1×10^6/ml. The cells were then transferred into quartz cuvettes (2 ml) which were placed in a luminescence spectrometer (LS-50B, Perkin-Elmer, Beaconsfield, England). Stimulants at different concentrations were added in a volume of 20 μl to each cuvette at the indicated time points. The ratio of fluorescence at 340 and 380 nm wavelength was calculated using a FL WinLab program (Perkin-Elmer).

[11] = tested on: HIV-1BAL-env; assay: HIV-1 env fusion with human blood monocytes; type: cell-based
[12] = target: T1, FPR (Homo sapiens, UniProt P21462); assay: Migration of ETFR cells; type: cell-based; conditions: ETFR cells (overexpressing FPR)
T1 construct: H. Ali and R. Snyderman (Duke University); host or cells: RBL-2H3 rat basophilic leukemia cells
T1 sequence (P21462 1-350): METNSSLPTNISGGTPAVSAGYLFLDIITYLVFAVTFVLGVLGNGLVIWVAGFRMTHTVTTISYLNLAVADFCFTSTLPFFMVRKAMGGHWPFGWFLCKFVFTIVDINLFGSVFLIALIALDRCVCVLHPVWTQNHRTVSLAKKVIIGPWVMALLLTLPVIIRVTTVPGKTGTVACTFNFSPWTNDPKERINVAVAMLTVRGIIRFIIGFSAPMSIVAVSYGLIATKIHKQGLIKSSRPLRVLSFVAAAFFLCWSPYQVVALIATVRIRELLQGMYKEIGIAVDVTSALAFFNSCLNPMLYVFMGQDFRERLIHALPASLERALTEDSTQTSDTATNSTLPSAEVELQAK

[13] = tested on: neutrophils; assay: Neutrophil chemotaxis, 48-well micro-chemotaxis chamber; type: cell-based; conditions: human neutrophils
[14] = tested on: monocytes; assay: Monocyte chemotaxis, 48-well micro-chemotaxis chamber; type: cell-based, human; conditions: human monocytes
[15] = target: CXCR4 (Homo sapiens, UniProt P61073); assay: Interaction with CXCR4
[16] = tested on: T lymphocytes; assay: T lymphocyte chemotaxis; type: cell-based, human

Sequence of CXCR4 (P61073 whole entry): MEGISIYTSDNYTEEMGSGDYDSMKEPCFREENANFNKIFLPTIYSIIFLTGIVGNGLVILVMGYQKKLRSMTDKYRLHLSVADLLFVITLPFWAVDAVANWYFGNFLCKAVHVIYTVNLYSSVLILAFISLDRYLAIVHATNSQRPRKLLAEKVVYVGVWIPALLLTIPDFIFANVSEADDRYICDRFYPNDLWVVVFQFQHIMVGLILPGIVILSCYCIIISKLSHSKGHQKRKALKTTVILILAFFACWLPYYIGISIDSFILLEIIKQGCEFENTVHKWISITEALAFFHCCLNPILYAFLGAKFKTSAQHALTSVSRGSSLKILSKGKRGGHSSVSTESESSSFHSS

Compound	chemotactic response to MIP-1β after pretreatment [1]	viability of macrophages [2]	fusion and infection, syncytia formation and p24 production [3]	HIV-1BAL-env-mediated fusion [4]	specific binding for 125I-MIP-1β after treatment ([5]; monocytes treated for 1 h)	binding of 125I-MIP-1β after treatment ([5]; monocytes treated for up to 30 min at 37° C.)	displacement of 125I-MIP-1β binding ([5]; monocytes, high concentrations as competitor)	Ca2+ mobilization [6]	expression of CCR5 on the cell surface [7]	fusion and infection, syncytia formation and p24 production [8]	phosphorylation of CCR5 [9]	Ca2+ flux in response to RANTES and MIP-1α after pretreatment ([10]; fMLP 10^−6 M)	HIV-1 env fusion [11]	migration / chemotaxis [12]	chemotactic activity / migration [13]	chemotactic activity / migration [14]	interaction with CXCR4 [15]	chemotactic activity [16]	cell response (Ca2+) to MCP-1 and fMLP after preincubation ([10]; 1.5 μM)	cell response (Ca2+) to RANTES and SDF-1α after preincubation ([10]; 1.5 μM)
CSCC[C@H](NC=O)C(=O)N[C@@H](CC(C)C)C(=O)N[C@@H](Cc1ccccc1)C(=O)O [fMLP, N-formyl-methionyl-leucyl-phenylalanine]	progressively reduced chemotactic response	did not affect the viability of macrophages	significantly reduced the fusion and infection	markedly inhibited	markedly reduced	only a marginally reduced binding	did not displace any	did not induce Ca^2+ mobilization	markedly downregulated	significantly reduced the fusion and infection	induced an increase in phosphorylation of CCR5	reduced Ca^2+ flux	inhibition of HIV-1 env fusion with blood monocytes	–	–	–	–	–	–	–
TRPNYNKRKRIHIGPGRAFYTTKNIIGTIRQAH-NH2 [V3 peptide]	–	–	–	–	–	–	–	–	–	–	–	–	–	low level of chemotaxis response	potent chemoattractant	potent chemoattractant	did not interact with CXCR4	weak chemoattractant	minimally affected	significantly reduced

From US6808877B2, “Ligands for FPR class receptors that induce a host immune response to a pathogen or inhibit HIV infection” (priority 2000, dated 2004)
